Measurements taken from patent publication US10028956B2, “Methods of treating various cancers using an AXL/cMET inhibitor in combination with other agents” (Ignyta, Inc., priority 2013, dated 2018).

Key:
[1] = molecular target: T1, AXL (Homo sapiens, UniProt P30530); experiment: Cellular AXL inhibition in AXL-transfected 293GT cells; type: cell-based
T1 sequence (P30530 26-894): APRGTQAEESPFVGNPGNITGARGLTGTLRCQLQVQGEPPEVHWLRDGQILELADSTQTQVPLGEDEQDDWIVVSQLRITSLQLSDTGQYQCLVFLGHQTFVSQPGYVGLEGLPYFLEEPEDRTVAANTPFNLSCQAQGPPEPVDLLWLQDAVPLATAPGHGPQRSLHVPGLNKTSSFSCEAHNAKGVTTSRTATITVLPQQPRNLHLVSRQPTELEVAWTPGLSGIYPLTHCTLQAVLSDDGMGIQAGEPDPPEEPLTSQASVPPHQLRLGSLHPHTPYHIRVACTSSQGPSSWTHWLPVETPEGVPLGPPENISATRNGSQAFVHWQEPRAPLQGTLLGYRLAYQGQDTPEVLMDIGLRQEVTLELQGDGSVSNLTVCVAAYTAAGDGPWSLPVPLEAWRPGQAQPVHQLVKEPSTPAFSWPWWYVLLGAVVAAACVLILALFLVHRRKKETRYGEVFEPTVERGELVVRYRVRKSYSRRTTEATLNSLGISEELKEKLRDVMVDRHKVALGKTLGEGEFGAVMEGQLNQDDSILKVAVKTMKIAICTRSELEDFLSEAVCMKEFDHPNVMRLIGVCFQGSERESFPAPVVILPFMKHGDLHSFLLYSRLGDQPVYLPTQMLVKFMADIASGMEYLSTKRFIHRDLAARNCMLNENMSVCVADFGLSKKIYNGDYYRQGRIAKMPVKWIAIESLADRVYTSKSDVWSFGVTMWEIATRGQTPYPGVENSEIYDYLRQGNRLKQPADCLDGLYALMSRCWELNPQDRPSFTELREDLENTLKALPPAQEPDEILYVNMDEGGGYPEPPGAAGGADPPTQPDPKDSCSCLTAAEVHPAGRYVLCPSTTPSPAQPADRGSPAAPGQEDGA

[2] = molecular target: T1, AXL; experiment: Inhibition of AXL phosphorylation in NCI-H1299 NSCL xenografts (PK/PD); type: in vivo, mice; set-up: endogenous in cells; host or cells: NCI-H1299 human NSCLC cells (culture; subcutaneous xenograft in mice)
Source text: Female Nu/Nu mice (6-8 weeks, Charles River Laboratory, Wilmington, Mass.) were maintained 5/cage in microisolator units on a standard laboratory diet (Teklad Labchow, Harlan Teklad, Madison, Wis.). Animals were housed under humidity- and temperature-controlled conditions and the light/dark cycle was set at 12-hour intervals. Mice were quarantined at least 1 week prior to experimental manipulation. Experiments were approved (Protocol 03-023) by the Institutional Animal Care and Use Committee of Teva Pharmaceuticals Inc
Briefly, NCI-H1299 NSCL cells (for AXL studies) or GTL-16 gastric carcinoma cells (for c-Met studies) were collected and resuspended in DMEM medium at density of 5×10^7/mL and an aliquot (100 μL) of the cell suspension (5×10^6 cells) was inoculated subcutaneously to the left flank of each mouse with a 23 g needle. […] At indicated time points post dosing, the mice (3 mice at each time point) were sacrificed by decapitation and blood was collected in 1.5 mL microcentrifuge tubes containing 20 μL of heparin sodium (10,000 unit/mL in H2O, Cat^#0210193191, MP Biomedical, Solon, Ohio) and left on ice briefly. The tubes were centrifuged at 20,817×g (Eppendorf Centrifuge 5417R with a FA45-30-11 rotor) for 8 minutes at 4° C. and the plasma was collected and transferred to 1.5 mL microfuge tubes, which were then stored at −80° C. The tumors were excised and weighed, cut into small pieces with a scalpel and placed into a round-bottom 14 mL tube (Cat^#352059, Becton Dickinson, Franklin, N.J.) on ice. Two volumes of FRAK lysis buffer without detergent [10 mM Tris, pH 7.5, 50 mM sodium chloride, 20 mM sodium fluoride, 2 mM sodium pyrophosphate, 0.1% BSA, plus freshly prepared 1 mM activated sodium vanadate, 4 mM DTT, 1 mM PMSF and the protease inhibitor cocktail III (1:100 dilution, Cat^#539134, Calbiochem, La Jolla, Calif.)] were added to 1 volume of tumor (eg, 500 μL FRAK lysis buffer were added to 250 mg tissue). […] The compound levels in both plasma and tumor lysates were measured by LC-MS/MS. […]

[3] = tested on: EBC-1 Human NSCLC xenografts; experiment: Discontinuous and alternate dosing schedules in EBC-1 xenografts; type: in vivo, mice; conditions: 10 mg/kg oral
Procedure: After a period of 7 days of continuous dosing, animals were then switched to either a 7 day on/7 day off 10 mg/kg qd dosing regimen, or intermittent twice weekly (q2d) or thrice weekly (q3d) oral dosing at a 10 mg/kg qd dose for a total of 21 days.

Q: Which results are given for `COc1cc2nccc(Oc3ccc(NC(=O)c4cn(C(C)C)c(=O)n(-c5ccc(F)cc5)c4=O)cc3F)c2cc1OC` [CEP-40783, 3-(4-Fluorophenyl)-1-isopropyl-2,4-dioxo-1,2,3,4-tetrahydropyrimidine-5-carboxylic acid [4-(6,7-dimethoxyquinolin-4-yloxy)-3-fluorophenyl]-amide]?
A: IC50 [1]: 0.26 nM; inhibition of AXL phosphorylation (target inhibition) ([2]; 0.3 mg/kg, 6 h post dose): ~80%; inhibition of AXL phosphorylation (target inhibition) ([2]; 1 mg/kg, between 6-24 h): > 90%; inhibition of AXL phosphorylation ([2]; 10 mg/kg po, up to 48 h post dosing): complete AXL inhibition; partial responses ([3]; every 2 days (q2d)): 40%; partial responses ([3]; every 3 days (q3d)): 70%; complete tumor regressions, % of animals ([3]; q2d dosing group): 20%; partial responses ([3]; qd, 7 days on/7 days off (qd×7)): 40%; complete tumor regressions, % of animals ([3]; qd×7 dosing group): 10%
